Laboratory results from US20260250257A1, “ANTIBACTERIAL AND SYNERGISTIC ACTIVE COMPOUND AND USE THEREOF” (EAST CHINA UNIVERSITY OF SCIENCE AND TECHNOLOGY, priority 2023, published 2026).

System: ATCC13883 strain (Klebsiella pneumoniae)
Assay: Checkerboard antibacterial synergistic activity test with polymyxin E (FIC)
Format: cell-based
Set-up: key: FIC≤0.5 synergy; 0.5–1 additive; 1–2 indifferent; ≥2 antagonism
Settings: combined with polymyxin E
In short: (§1)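 First, two-fold series of polymyxin E (16–0.015 μg/ml) and compound (256–4 μg/ml) were made in MH broth. Next, combinations went into a 96-well grid, bacterial liquid was added, and plates sat at 37° C. for 16 h. Finally, FIC was computed and classed (≤0.5 synergistic).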

Structure (SMILES) | Synergistic activity (FIC value) ATCC13883
COc1ccccc1-c1csc(N=C(N)N)n1 [Compound I-4] | 1.25
Cc1ccc(Oc2cccc(-c3coc(N=C(N)N)n3)c2)c(C)c1 [Compound I-92] | 0.19
Cc1cccc2cccc(-c3csc(N=C(N)N)n3)c12 [Compound I-57] | 0.25
CSc1cc2c(C)cccn2c1-c1csc(N=C(N)N)n1 [Compound I-124] | 0.19
CC(=O)c1ccc(-c2csc(N=C(N)N)n2)cc1 [Compound I-24] | 1.25
NC(N)=Nc1nc(-c2ccccc2Oc2ccc(I)cc2I)cs1 [Compound I-87] | 0.16
CC(=O)Nc1cc(-c2csc(N=C(N)N)n2)ccc1-c1ccccc1 [Compound I-75] | 0.31
NC(N)=Nc1nc(-c2ccc(Cl)cc2)cs1 [Compound I-38] | 0.25
Cc1ccc(Oc2cccc(-c3csc(N=C4NCCCN4)n3)c2)c(C)c1 [Compound I-153] | 0.09

System: ATCC19606 strain (Acinetobacter baumannii)
Assay: as above
Format: cell-based
Set-up: key: FIC≤0.5 synergy; 0.5–1 additive; 1–2 indifferent; ≥2 antagonism
Settings: combined with polymyxin E
In short: as §1

Structure (SMILES) | Synergistic activity (FIC value) ATCC19606
COc1ccccc1-c1csc(N=C(N)N)n1 [Compound I-4] | 1.25
Cc1ccc(Oc2cccc(-c3coc(N=C(N)N)n3)c2)c(C)c1 [Compound I-92] | 0.38
Cc1cccc2cccc(-c3csc(N=C(N)N)n3)c12 [Compound I-57] | 0.3
CSc1cc2c(C)cccn2c1-c1csc(N=C(N)N)n1 [Compound I-124] | 0.38
CC(=O)c1ccc(-c2csc(N=C(N)N)n2)cc1 [Compound I-24] | 0.5
NC(N)=Nc1nc(-c2ccccc2Oc2ccc(I)cc2I)cs1 [Compound I-87] | 0.03
CC(=O)Nc1cc(-c2csc(N=C(N)N)n2)ccc1-c1ccccc1 [Compound I-75] | 0.12
NC(N)=Nc1nc(-c2ccc(Cl)cc2)cs1 [Compound I-38] | 0.28
Cc1ccc(Oc2cccc(-c3csc(N=C4NCCCN4)n3)c2)c(C)c1 [Compound I-153] | 0.31

System: ATCC25922 strain (Escherichia coli)
Assay: as above
Format: cell-based
Set-up: key: FIC≤0.5 synergy; 0.5–1 additive; 1–2 indifferent; ≥2 antagonism
Settings: combined with polymyxin E
In short: as §1

Structure (SMILES) | Synergistic activity (FIC value) ATCC25922
COc1ccccc1-c1csc(N=C(N)N)n1 [Compound I-4] | 0.5
Cc1ccc(Oc2cccc(-c3coc(N=C(N)N)n3)c2)c(C)c1 [Compound I-92] | 0.04
Cc1cccc2cccc(-c3csc(N=C(N)N)n3)c12 [Compound I-57] | 0.5
CSc1cc2c(C)cccn2c1-c1csc(N=C(N)N)n1 [Compound I-124] | 0.04
CC(=O)c1ccc(-c2csc(N=C(N)N)n2)cc1 [Compound I-24] | 1.25
NC(N)=Nc1nc(-c2ccccc2Oc2ccc(I)cc2I)cs1 [Compound I-87] | 0.18
CC(=O)Nc1cc(-c2csc(N=C(N)N)n2)ccc1-c1ccccc1 [Compound I-75] | 0.38
NC(N)=Nc1nc(-c2ccc(Cl)cc2)cs1 [Compound I-38] | 0.5
Cc1ccc(Oc2cccc(-c3csc(N=C4NCCCN4)n3)c2)c(C)c1 [Compound I-153] | 0.14

System: ATCC9027 strain (Pseudomonas aeruginosa)
Assay: as above
Format: cell-based
Set-up: key: FIC≤0.5 synergy; 0.5–1 additive; 1–2 indifferent; ≥2 antagonism
Settings: combined with polymyxin E
In short: as §1

Structure (SMILES) | Synergistic activity (FIC value) ATCC9027
COc1ccccc1-c1csc(N=C(N)N)n1 [Compound I-4] | 1.25
Cc1ccc(Oc2cccc(-c3coc(N=C(N)N)n3)c2)c(C)c1 [Compound I-92] | 0.04
Cc1cccc2cccc(-c3csc(N=C(N)N)n3)c12 [Compound I-57] | 0.63
CSc1cc2c(C)cccn2c1-c1csc(N=C(N)N)n1 [Compound I-124] | 0.04
CC(=O)c1ccc(-c2csc(N=C(N)N)n2)cc1 [Compound I-24] | 1.25
NC(N)=Nc1nc(-c2ccccc2Oc2ccc(I)cc2I)cs1 [Compound I-87] | 0.28
CC(=O)Nc1cc(-c2csc(N=C(N)N)n2)ccc1-c1ccccc1 [Compound I-75] | 0.31
NC(N)=Nc1nc(-c2ccc(Cl)cc2)cs1 [Compound I-38] | 0.63
Cc1ccc(Oc2cccc(-c3csc(N=C4NCCCN4)n3)c2)c(C)c1 [Compound I-153] | 0.06

System: ATCC13883 strain (Klebsiella pneumoniae)
Assay: Broth microdilution, antibacterial activity of the compound used alone
Format: cell-based
Settings: not given
From the text: (§2) The broth microdilution method was used to test the antibacterial effects of the compounds of the present invention against various Gram-negative bacterial strains when used alone.

Structure (SMILES) | Antibacterial activity of the compound of Formula I, ATCC13883 [µg/mL]
COc1ccccc1-c1csc(N=C(N)N)n1 [Compound I-4] | 256
Cc1ccc(Oc2cccc(-c3coc(N=C(N)N)n3)c2)c(C)c1 [Compound I-92] | 256
Cc1cccc2cccc(-c3csc(N=C(N)N)n3)c12 [Compound I-57] | 256
CSc1cc2c(C)cccn2c1-c1csc(N=C(N)N)n1 [Compound I-124] | 256
CC(=O)c1ccc(-c2csc(N=C(N)N)n2)cc1 [Compound I-24] | 256
NC(N)=Nc1nc(-c2ccccc2Oc2ccc(I)cc2I)cs1 [Compound I-87] | 256
CC(=O)Nc1cc(-c2csc(N=C(N)N)n2)ccc1-c1ccccc1 [Compound I-75] | 256
NC(N)=Nc1nc(-c2ccc(Cl)cc2)cs1 [Compound I-38] | 256
Cc1ccc(Oc2cccc(-c3csc(N=C4NCCCN4)n3)c2)c(C)c1 [Compound I-153] | 256

System: ATCC19606 strain (Acinetobacter baumannii)
Assay: as above
Format: cell-based
Settings: not given
From the text: as §2

Structure (SMILES) | Antibacterial activity of the compound of Formula I, ATCC19606 [µg/mL]
COc1ccccc1-c1csc(N=C(N)N)n1 [Compound I-4] | 256
Cc1ccc(Oc2cccc(-c3coc(N=C(N)N)n3)c2)c(C)c1 [Compound I-92] | 256
Cc1cccc2cccc(-c3csc(N=C(N)N)n3)c12 [Compound I-57] | 256
CSc1cc2c(C)cccn2c1-c1csc(N=C(N)N)n1 [Compound I-124] | 256
CC(=O)c1ccc(-c2csc(N=C(N)N)n2)cc1 [Compound I-24] | 256
NC(N)=Nc1nc(-c2ccccc2Oc2ccc(I)cc2I)cs1 [Compound I-87] | 256
CC(=O)Nc1cc(-c2csc(N=C(N)N)n2)ccc1-c1ccccc1 [Compound I-75] | 256
NC(N)=Nc1nc(-c2ccc(Cl)cc2)cs1 [Compound I-38] | 256
Cc1ccc(Oc2cccc(-c3csc(N=C4NCCCN4)n3)c2)c(C)c1 [Compound I-153] | 256

System: ATCC25922 strain (Escherichia coli)
Assay: as above
Format: cell-based
Settings: not given
From the text: as §2

Structure (SMILES) | Antibacterial activity of the compound of Formula I, ATCC25922 [µg/mL]
COc1ccccc1-c1csc(N=C(N)N)n1 [Compound I-4] | 256
Cc1ccc(Oc2cccc(-c3coc(N=C(N)N)n3)c2)c(C)c1 [Compound I-92] | 256
Cc1cccc2cccc(-c3csc(N=C(N)N)n3)c12 [Compound I-57] | 256
CSc1cc2c(C)cccn2c1-c1csc(N=C(N)N)n1 [Compound I-124] | 256
CC(=O)c1ccc(-c2csc(N=C(N)N)n2)cc1 [Compound I-24] | 256
NC(N)=Nc1nc(-c2ccccc2Oc2ccc(I)cc2I)cs1 [Compound I-87] | 256
CC(=O)Nc1cc(-c2csc(N=C(N)N)n2)ccc1-c1ccccc1 [Compound I-75] | 256
NC(N)=Nc1nc(-c2ccc(Cl)cc2)cs1 [Compound I-38] | 256
Cc1ccc(Oc2cccc(-c3csc(N=C4NCCCN4)n3)c2)c(C)c1 [Compound I-153] | 256

System: ATCC9027 strain (Pseudomonas aeruginosa)
Assay: as above
Format: cell-based
Settings: not given
From the text: as §2

Structure (SMILES) | Antibacterial activity of the compound of Formula I, ATCC9027 [µg/mL]
COc1ccccc1-c1csc(N=C(N)N)n1 [Compound I-4] | 256
Cc1ccc(Oc2cccc(-c3coc(N=C(N)N)n3)c2)c(C)c1 [Compound I-92] | 256
Cc1cccc2cccc(-c3csc(N=C(N)N)n3)c12 [Compound I-57] | 256
CSc1cc2c(C)cccn2c1-c1csc(N=C(N)N)n1 [Compound I-124] | 256
CC(=O)c1ccc(-c2csc(N=C(N)N)n2)cc1 [Compound I-24] | 256
NC(N)=Nc1nc(-c2ccccc2Oc2ccc(I)cc2I)cs1 [Compound I-87] | 256
CC(=O)Nc1cc(-c2csc(N=C(N)N)n2)ccc1-c1ccccc1 [Compound I-75] | 256
NC(N)=Nc1nc(-c2ccc(Cl)cc2)cs1 [Compound I-38] | 256
Cc1ccc(Oc2cccc(-c3csc(N=C4NCCCN4)n3)c2)c(C)c1 [Compound I-153] | 256
